# Test results from patent publication US20230257429A1, “PEPTIDE ADJUVANT FOR ITS THERAPEUTIC APPLICATIONS IN VIRAL AND TUMOUR VACCINE DEVELOPMENT AND CANCER IMMUNOTHERAPY AND AUTOIMMUNE DISEASE DIAGNOSIS AND TREATMENTS” (National University of Singapore, priority 2020, published 2023).
# Peptide text beside a SMILES is read from it.
# Assays:
# [1] = biological target: T1, TLR4/CD14/MD2 (Homo sapiens, UniProt O00206); test: TLR and NF-κB-luciferase assay in 293T cells, TLR4/CD14/MD2; type: cell-based; conditions: on top of high TLR4 autoactivation
# T1 construct: expressed in transfected cells; host or cells: human embryonic kidney 293T cells
# Experimental: (§1) TLR-mediated NF-κB activation was determined using a Dual Luciferase Reporter Assay (Promega), in which two luciferase reporter plasmids were used. One plasmid expresses the firefly luciferase under the regulation of inducible NF-κB promoter and the other plasmid expresses the Renilla luciferase under a constitutively active CMV promoter [Zhang, H., et al., FEBS Lett 532: 171-176 (2002)]. Besides these luciferase vectors, cells were co-transfected with vectors coding for human TLRs or, in the case of TLR4, co-transfected with CD14 and MD2 [according to Zhang, H., et al., J. FEBS Lett 532: 171-176 (2002), incorporated herein by reference]. Transfection was performed using the TurboFect Transfection Reagent (Thermo Fisher Scientific). After 24 hr, cells were harvested and cultured for 24 hr in 96-well plates coated with the purified proteins or, as controls, cultured in blank plates but stimulated with TLR ligands. Cells were lysed to measure both firefly and Renilla luciferase activities and, in each sample, the firefly activity was normalized to the Renilla luciferase activity and expressed as relative NF-κB activation. […]
# [2] = biological target: T2, TLR5 (Homo sapiens, UniProt O60602); test: TLR and NF-κB-luciferase assay in 293T cells, TLR5; type: cell-based; conditions: protein-coated plates
# T2 construct: expressed in transfected cells; host or cells: human embryonic kidney 293T cells
# Experimental: as §1
# [3] = biological target: T3, TLR2 (Homo sapiens, UniProt O60603); test: TLR and NF-κB-luciferase assay in 293T cells, TLR2/TLR1/TLR6/TLR10; type: cell-based; parameters: expressed in transfected cells; host or cells: human embryonic kidney 293T cells
# Experimental: TLR-mediated NF-κB activation was determined using a Dual Luciferase Reporter Assay (Promega), in which two luciferase reporter plasmids were used. […] Transfection was performed using the TurboFect Transfection Reagent (Thermo Fisher Scientific). After 24 hr, cells were harvested and cultured for 24 hr in 96-well plates coated with the purified proteins or, as controls, cultured in blank plates but stimulated with TLR ligands. Cells were lysed to measure both firefly and Renilla luciferase activities and, in each sample, the firefly activity was normalized to the Renilla luciferase activity and expressed as relative NF-κB activation.
# TLRs and, where it required, co-receptors were co-transfected in a total of 4 combinations, i.e. TLR2/1/6/10, TLR4/CD14/MD2, TLR5, or TLR3/7/8/9. Two luciferase expression vectors were used: one expresses the firefly luciferase under 5 repeats of the NF-κB gene promoter and the other expresses the Renilla luciferase under the constitutively active CMV promoter (FIG. 3A).
# Target sequence in this assay (O60603 21-784): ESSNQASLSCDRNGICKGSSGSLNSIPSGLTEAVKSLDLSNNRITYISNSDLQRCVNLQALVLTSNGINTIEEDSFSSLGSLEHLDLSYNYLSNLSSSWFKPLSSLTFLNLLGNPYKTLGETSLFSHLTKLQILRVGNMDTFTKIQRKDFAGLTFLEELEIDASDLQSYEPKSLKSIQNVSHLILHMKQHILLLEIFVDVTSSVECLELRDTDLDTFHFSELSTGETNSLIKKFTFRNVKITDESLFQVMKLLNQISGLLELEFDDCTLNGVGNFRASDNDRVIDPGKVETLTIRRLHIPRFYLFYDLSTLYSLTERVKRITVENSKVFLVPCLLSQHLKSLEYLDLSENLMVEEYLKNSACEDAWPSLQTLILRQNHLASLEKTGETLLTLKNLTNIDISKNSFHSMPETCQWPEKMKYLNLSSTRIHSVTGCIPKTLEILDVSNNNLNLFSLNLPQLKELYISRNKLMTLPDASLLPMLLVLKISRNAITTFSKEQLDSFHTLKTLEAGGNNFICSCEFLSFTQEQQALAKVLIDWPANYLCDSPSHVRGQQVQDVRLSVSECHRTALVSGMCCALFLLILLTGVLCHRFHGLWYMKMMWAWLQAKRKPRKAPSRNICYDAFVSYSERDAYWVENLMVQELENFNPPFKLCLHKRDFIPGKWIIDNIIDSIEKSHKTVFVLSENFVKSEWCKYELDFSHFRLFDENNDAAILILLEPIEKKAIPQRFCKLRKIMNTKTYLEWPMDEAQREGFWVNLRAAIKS
# [4] = test system: monocytes; test: Monocyte activation, TNFα and IL-1β ELISA; type: cell-based, human
# Experimental: (§2) Buffy coat fractions were obtained from healthy blood donors at the Singapore Health Sciences Authority, with Institutional ethics approval, and PBMC were isolated using Ficoll-Paque (GE Healthcare). To isolate monocytes, PBMC were re-suspended to 1×10^7 cells/ml in the RPMI medium contained 5% (v/v) BCS and incubated for 1 hr in T75 flasks (20 ml/flask). Monocytes that adhered were harvested. To culture macrophages and DC [Cao, W., et al., Blood 107: 2777-2785, (2006), incorporated herein by reference], monocytes were resuspended to 1×10^6 cells/ml and cultured in 6-well plates (2 ml/well). Macrophages were cultured by adding M-CSF to 20 ng/ml and DC were cultured with 20 ng/ml GM-CSF and 40 ng/ml IL-4. M-CSF, GM-CSF and IL-4 were obtained from R&D Systems (Mineapolis, Minn.). Cells were cultured for 6 days with half of the media being replenished every two days.
# […] Where TLR ligands were used to stimulate these cells, they were added to the media: LPS (500 ng/ml for DC and macrophages and 10 ng/ml for PMBC and monocytes, InvivoGen), flagellin (1 μg/ml, InvivoGen), lipoteichic acid (LTA, 10 μg/ml). Cell activation was determined by measuring TNFα and IL-1β in the culture media using ELISA kits (Invitrogen).
# [5] = test system: dendritic cells (DC) and macrophages; test: DC and macrophage activation, cytokine ELISA; type: cell-based, human; conditions: protein coated on plates
# Experimental: as §2
# Purified proteins in PBS (30 μg/ml) were coated in triplicates in 96-well plates (50 μl/well) for 12 hr and PBMC (3×10^6 cells/ml), monocytes (1×10^6 cells/ml), macrophages (0.5×10^6 cells/ml) or DC (0.5×10^6 cells/ml) were re-suspended in macrophage serum-free medium containing penicillin and streptomycin and cultured for 24 hr in these plates at 100 μl/well. […] Cell activation was determined by measuring TNFα and IL-1β in the culture media using ELISA kits (Invitrogen).
# [6] = test system: PBMC; test: PBMC activation, TNFα and IL-1β ELISA; type: cell-based, human; conditions: protein coated on plates, 24 hr, ELISA
# Experimental: as §2
# Purified proteins in PBS (30 μg/ml) were coated in triplicates in 96-well plates (50 μl/well) for 12 hr and PBMC (3×10^6 cells/ml), monocytes (1×10^6 cells/ml), macrophages (0.5×10^6 cells/ml) or DC (0.5×10^6 cells/ml) were re-suspended in macrophage serum-free medium containing penicillin and streptomycin and cultured for 24 hr in these plates at 100 μl/well. Where TLR ligands were used to stimulate these cells, they were added to the media: LPS (500 ng/ml for DC and macrophages and 10 ng/ml for PMBC and monocytes, InvivoGen), flagellin (1 μg/ml, InvivoGen), lipoteichic acid (LTA, 10 μg/ml). Cell activation was determined by measuring TNFα and IL-1β in the culture media using ELISA kits (Invitrogen).
# [7] = test system: PBMC; test: PBMC activation, TNFα and IL-1β ELISA; type: cell-based, human; conditions: 2.5, 5.0, 10, 14, 18 and 24 hr
# [8] = test system: monocytes; test: TLR-blocking antibody pre-incubation before stimulation, TNFα; type: cell-based, human; conditions: monocytes pre-incubated with blocking antibody
# Experimental: In some experiments, cells were pre-treated with the MyD88 inhibitor st-2825 (MedChemExpress) or the Caspase-1 inhibitor Ac-YVAD (InvivoGen) for 1 hr before stimulation with TLR ligands or the purified nuclear proteins. In some other experiments, cells were pre-incubated for 1 hr with anti-TLR2, TLR4 and TLR5 antibodies (InvivoGen) before stimulation. The optimal st-2825 and Ac-YVAD concentrations were determined based on both their effects on cell viability and LPS-induced cytokine production. Cell viability was determined using the CELLTITER 96® AQueous One Solution Cell Proliferation (MTS) Assay (Promega).
# Therefore, TLR2 is clearly a sensing receptor for NCL as well as HMGB1. We then further analyzed the contribution of TLR2, TLR4 and TLR5 to NCL and HMGB1 recognition in their natural cellular contexts. Monocytes were pre-incubated with antibodies that were known to block each of these TLRs and then stimulated with the respective microbial ligands i.e. lipoteichoic acid (LTA), LPS and flagellin (FIG. 3E). […] NCL is a 710-amino acid protein and it is interesting to identify the specific NCL region that activates TLR2.
# [9] = test system: red blood cells (RBC); test: Hemolytic assay; type: cell-based, human; conditions: 1 hr at 37° C., normalized to Triton X-100
# Experimental: Buffy coats were used as a source of red blood cells (RBC). Buffy coat (2 ml) was washed first in 10 ml of 150 mM NaCl and then washed twice in PBS (pH 7.4) by centrifugation for 5 min at 500 g. The cell pellets were resuspended in 10 ml of PBS as RBC stocks. The different peptides were diluted in PBS (100 μg/ml) and, in triplicates, the peptides were added to V-bottom 96-well plates at 10 μl/well. As controls, the same volumes of PBS or 20% (v/v) Triton X-100 were added. RBC were diluted 50 times in PBS and added to the plates at 190 μl/well. After incubation for 1 hr at 37° C., the plates were centrifuged for 5 min at 500 g. The supernatants (100 μl/well) were transferred to flat bottom plates and absorbance was measured at OD405. Data were normalized to the average OD405 readings obtained with 1% (v/v) Triton X-100 and presented as percentage hemolysis.
# [10] = test system: dendritic cells (DC) and macrophages; conditions: Wu et al. 2021; cited from earlier work
# [11] = biological target: T3, TLR2; test: TLR2 binding assay (ELISA plate); parameters: purchased R&D Systems; conditions: TLR2 coated 2 μg/ml
# Target sequence in this assay (O60603 21-590 limits assumed): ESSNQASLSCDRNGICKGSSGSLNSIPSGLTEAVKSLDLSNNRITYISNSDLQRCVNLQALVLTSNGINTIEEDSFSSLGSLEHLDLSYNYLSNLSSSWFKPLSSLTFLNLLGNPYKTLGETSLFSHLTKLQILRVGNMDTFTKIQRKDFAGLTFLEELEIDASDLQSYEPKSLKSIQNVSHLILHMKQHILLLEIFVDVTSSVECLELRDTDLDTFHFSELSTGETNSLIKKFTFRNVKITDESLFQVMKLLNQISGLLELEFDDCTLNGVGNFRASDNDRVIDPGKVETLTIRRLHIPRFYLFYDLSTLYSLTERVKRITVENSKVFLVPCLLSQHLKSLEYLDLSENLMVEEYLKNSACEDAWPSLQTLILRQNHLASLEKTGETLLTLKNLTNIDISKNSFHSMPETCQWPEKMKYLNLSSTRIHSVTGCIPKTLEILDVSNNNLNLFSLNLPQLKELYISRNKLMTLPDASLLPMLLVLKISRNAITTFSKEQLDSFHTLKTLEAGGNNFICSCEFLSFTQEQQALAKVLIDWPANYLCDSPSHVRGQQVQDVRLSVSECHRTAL
# [12] = test system: PBMC; test: Peptide binding to and penetration of PBMC, flow cytometry; type: cell-based, human; conditions: for cell surface binding of peptide at 37° C.: PBMC gated for monocytes, B cells, T cells; for cell surface binding of peptide at 37° C. / intracellular peptide at 37° C.: 1 hr; for intracellular peptide at 4° C.: B cells and T cells, permeabilized; for intracellular peptide at 37° C.: permeabilized cells
# Experimental: PBMC re-suspended in 100 μl macrophage serum free media (3×10^6/ml) were incubated with different peptides (200 μg/ml). PBMC (100 μl) were incubated with the peptides for 1 hr at 37° C. or 4° C. Cells were washed twice in 2% FBS/PBS and incubated with streptavidin-AF488 and Zombie (NIR) Fixable viability stain-APC-Cy7 for 30 min at 4° C. Cells were then fixed with 1% PFA for 30 min at room temperature and analysed using the Fortessa analyser (BD). In some experiments, PBMC were, after incubation with peptides, incubated with Zombie (NIR) Fixable viability stain (APC-Cy7) for 30 min at 4° C. Cells were then fixed and permeabilized with BD CYTOFIX/CYTOPERM™ Kit for 20 min at 4° C., and then incubated with streptavidin-AF488 for 30 min at 4° C. In some experiments, PBMC were, after incubation with the peptides, stained with fluorescent mouse antibodies specific for monocytes (CD14/BV711), T cells (CD3/PerCP-Cy5-5) and B cells (CD19/Pacific blue). Cells were then stained with Zombie (NIR) Fixable viability stain-APC-Cy7 and streptavin-AF488, with or without membrane permeabilization. In these experiments, monocytes, T cells and B cells were separately gated to detect surface peptide binding and intracellular peptide penetration.
# T2 sequence (O60602 21-858): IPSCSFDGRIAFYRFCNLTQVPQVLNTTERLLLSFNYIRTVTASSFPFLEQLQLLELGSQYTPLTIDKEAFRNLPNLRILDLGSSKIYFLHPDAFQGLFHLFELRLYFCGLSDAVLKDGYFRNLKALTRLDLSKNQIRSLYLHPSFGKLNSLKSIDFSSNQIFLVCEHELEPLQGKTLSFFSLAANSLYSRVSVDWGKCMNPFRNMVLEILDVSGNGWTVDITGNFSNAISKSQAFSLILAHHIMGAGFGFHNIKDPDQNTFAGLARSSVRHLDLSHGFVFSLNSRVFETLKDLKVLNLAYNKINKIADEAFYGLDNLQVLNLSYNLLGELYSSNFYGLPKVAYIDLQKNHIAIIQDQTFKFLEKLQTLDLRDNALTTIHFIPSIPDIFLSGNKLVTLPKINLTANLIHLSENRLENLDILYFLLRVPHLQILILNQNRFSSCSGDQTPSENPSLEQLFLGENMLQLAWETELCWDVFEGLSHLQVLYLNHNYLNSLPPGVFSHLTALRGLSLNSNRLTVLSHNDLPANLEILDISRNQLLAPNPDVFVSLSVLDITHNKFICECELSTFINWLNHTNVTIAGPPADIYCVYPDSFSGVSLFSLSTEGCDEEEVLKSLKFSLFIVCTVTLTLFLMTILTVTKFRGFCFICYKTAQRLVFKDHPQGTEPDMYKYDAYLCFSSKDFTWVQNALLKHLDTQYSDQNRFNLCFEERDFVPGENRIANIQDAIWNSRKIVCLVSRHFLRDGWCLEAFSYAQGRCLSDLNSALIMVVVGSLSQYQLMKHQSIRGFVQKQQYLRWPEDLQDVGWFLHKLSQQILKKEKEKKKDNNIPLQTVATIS
# T1 sequence (O00206 24-839): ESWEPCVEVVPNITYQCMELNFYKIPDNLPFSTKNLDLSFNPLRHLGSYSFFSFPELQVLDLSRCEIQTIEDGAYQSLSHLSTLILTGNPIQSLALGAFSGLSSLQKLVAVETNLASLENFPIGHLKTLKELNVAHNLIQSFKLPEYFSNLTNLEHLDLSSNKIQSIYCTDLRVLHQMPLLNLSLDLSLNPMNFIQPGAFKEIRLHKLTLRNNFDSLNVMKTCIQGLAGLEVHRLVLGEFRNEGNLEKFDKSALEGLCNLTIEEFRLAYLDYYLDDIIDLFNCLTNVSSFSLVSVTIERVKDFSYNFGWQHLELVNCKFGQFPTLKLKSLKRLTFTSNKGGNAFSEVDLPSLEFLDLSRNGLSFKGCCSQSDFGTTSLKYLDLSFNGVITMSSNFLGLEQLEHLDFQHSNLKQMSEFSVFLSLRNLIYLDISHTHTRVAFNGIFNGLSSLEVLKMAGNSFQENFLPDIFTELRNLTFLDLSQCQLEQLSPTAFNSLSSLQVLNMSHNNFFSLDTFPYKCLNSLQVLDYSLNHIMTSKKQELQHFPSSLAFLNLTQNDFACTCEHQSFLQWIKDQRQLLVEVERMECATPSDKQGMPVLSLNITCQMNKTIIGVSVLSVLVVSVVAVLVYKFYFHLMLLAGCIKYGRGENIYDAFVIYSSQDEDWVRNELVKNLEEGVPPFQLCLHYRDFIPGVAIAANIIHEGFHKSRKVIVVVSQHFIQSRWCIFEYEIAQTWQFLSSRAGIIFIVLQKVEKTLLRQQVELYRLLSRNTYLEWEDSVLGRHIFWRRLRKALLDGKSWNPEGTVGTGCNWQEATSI
# T1 sequence (Q9Y6Y9 19-160 partner): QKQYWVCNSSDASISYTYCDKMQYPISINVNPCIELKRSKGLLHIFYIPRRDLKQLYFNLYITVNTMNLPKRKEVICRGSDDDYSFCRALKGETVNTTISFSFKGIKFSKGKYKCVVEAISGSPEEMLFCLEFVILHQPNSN
molecule,measurement,setting,value
HMGB1: HMGB1 purified from T×NE as an alarmin control,NF-κB activation via TLR4/CD14/MD2,[1],marginal but significant additional TLR4 activation
same,NF-κB activation via TLR5,[2],consistently activated TLR5
same,TLR2 response when expressed without TLR1/TLR6/TLR10 or co-expressed with TLR5,[3],not significantly affected
same,NF-κB activation via TLR2/TLR1/TLR6/TLR10 combination,"[3]; protein-coated plates, 24 hr",prominent activation
same,TNFα and IL-1β production from monocytes,"[4]; protein coated on plates, 24 hr, ELISA",HMGB1 did
same,cytokine production from dendritic cells (DC) and macrophages,[5],also induced cytokine production
same,TNFα and IL-1β production from PBMC,[6],HMGB1 did
same,kinetics of IL-1β induction from PBMC,[7],rapidly surged to plateau
same,kinetics of TNFα induction from PBMC,[7],linear early increase but a noticeable late surge
same,effect of TLR2 antibody on TNFα production induced by the protein,[8],significantly inhibited
same,effect of TLR4 antibody on TNFα production induced by the protein,[8],significantly inhibited
same,effect of TLR5 antibody on TNFα production induced by the protein,[8],significantly inhibited
"CC[C@H](C)[C@H](NC(=O)[C@H](CCCNC(=N)N)NC(=O)[C@H](CCCNC(=N)N)NC(=O)[C@H](CCCNC(=N)N)NC(=O)[C@H](CC(C)C)NC(=O)[C@@H](NC(=O)[C@@H](NC(=O)[C@H](CC(C)C)NC(=O)[C@@H](N)CC(C)C)[C@@H](C)CC)[C@@H](C)CC)C(=O)N[C@@H](CCCNC(=N)N)C(=O)N[C@@H](CCCCN)C(=O)N[C@@H](CCC(N)=O)C(=O)N[C@@H](C)C(=O)N[C@@H](Cc1c[nH]cn1)C(=O)N[C@@H](C)C(=O)N[C@@H](Cc1c[nH]cn1)C(=O)N[C@@H](CO)C(=O)N[C@@H](CCCCN)C(=O)O [CPP5, LLIILRRRIRKQAHAHSK] (H-LLIILRRRIRKQAHAHSK-OH)",haemolysis,[9],clearly haemolytic
GGFGGRGGGRGGRGGFGGRGRGGFGGRGGFRGGRGG (NCL-P2),DC activation judged by TNFα induction,[10],activate DC
same,alarmin activity compared with NCL-P1,[4]; monocytes,stronger alarmin activity than NCL-P1
same,"cytokine induction, soluble versus coated (immobilized) form","[4]; monocytes, 24 hr",induced more cytokines than immobilized peptides
same,cytokines induced by plate-coated peptide compared with NCL-P1,"[4]; monocytes, peptides coated on plates",induced more cytokines than NCL-P1
same,TNFα induced relative to NCL-P1,"[4]; monocytes, soluble peptide 40 μg/ml",approximately 10 fold
same,TNFα induction from monocytes (7 NCL peptides),"[4]; peptides 50 or 200 μg/ml, 24 hr",induced TNFα
same,TNFα induction from monocytes at lower concentrations,[4]; soluble peptide 10 and 20 μg/ml,induced little TNFα
same,TNFα induction from monocytes at higher concentrations,[4]; soluble peptide 80 and 160 μg/ml,strongly induced TNFα production
same,concentration at which saturated TLR2 binding was reached,[11],3.2 µg/mL
same,peptide binding to coated TLR2,[11]; biotin peptides at increasing concentrations,dose-dependent and saturable binding to TLR2
same,intracellular pool / cell penetration (CPP activity) in PBMC,"[12]; 1 hr at 4° C., fixed/permeabilized, streptavidin-AF488",accumulate intracellular pools
same,cell surface binding of peptide at 37° C.,[12],the majority of monocytes and smaller fractions of B and T cells
same,cell surface binding of peptide at 37° C.,[12]; listed as P2,surface binding was only prominent on PBMC and monocytes
same,intracellular peptide at 4° C.,[12]; monocytes,similarly high intracellular pools of the peptide
same,intracellular peptide at 4° C.,"[12]; monocytes, listed as P2",similarly high levels of intracellular P2 peptide irrespective of the temperature of incubation
same,surface-bound peptide at 4° C.,"[12]; monocytes, compared with 37° C.",increased significantly
same,intracellular peptide at 37° C.,[12],much higher level of the peptide was detected in all PBMC
same,intracellular peptide at 37° C.,[12]; listed as P2,similarly high levels of intracellular P2 peptide irrespective of the temperature of incubation
